Experimental data as given in patent US6992079B2, “Substituted 11-phenyl-dibenzazepine compounds useful for the treatment or prevention of diseases characterized by abnormal cell proliferation” (President Fellows of Harvard College, priority 1997, dated 2006).

Tests used:
[1] = system: PC-3; assay: In-Vitro Testing SRB panel: Prostate Cancer; format: cell-based
[2] = system: OVCAR-3; assay: In-Vitro Testing SRB panel: Ovarian Cancer
[3] = system: COLO 205; assay: In-Vitro Testing SRB panel: Colon Cancer; format: cell-based
[4] = system: HCT-116; assay: In-Vitro Testing SRB panel: Colon Cancer; format: cell-based
[5] = system: ACHN; assay: In-Vitro Testing SRB panel: Renal Cancer; format: cell-based
[6] = system: T-47D; assay: In-Vitro Testing SRB panel: Breast Cancer; format: cell-based
[7] = system: SNB-19; assay: In-Vitro Testing SRB panel: CNS Cancer; format: cell-based
[8] = system: IGROV1; assay: In-Vitro Testing SRB panel: Ovarian Cancer; format: cell-based
[9] = system: SF-539; assay: In-Vitro Testing SRB panel: CNS Cancer; format: cell-based
[10] = system: MC-F7; assay: In-Vitro Testing SRB panel: Breast Cancer; format: cell-based
[11] = system: SNB-75; assay: In-Vitro Testing SRB panel: CNS Cancer; format: cell-based
[12] = system: A549; assay: SRB antiproliferative assay; format: cell-based; conditions: Homo sapiens, A549, A549 (Lung), 5% FCS/5 day incubation
Description: (§1) The cells were passaged using Trypsin (Gibco).

[13] = system: HEPG2; assay: SRB antiproliferative assay; format: cell-based; conditions: Homo sapiens, HepG2, HEPG2 (Hepatocel), 5% FCS/5 day incubation
Description: as §1

[14] = system: HeLa; assay: SRB antiproliferative assay; format: cell-based; conditions: Homo sapiens, HeLa (Cervical), 5% FCS/5 day incubation
Description: as §1

[15] = system: MCF7; assay: SRB antiproliferative assay; format: cell-based; conditions: Homo sapiens, MCF7, MCF7 (Breast), 5% FCS/5 day incubation
Description: as §1

[16] = system: HT29; assay: SRB antiproliferative assay; format: cell-based; conditions: Homo sapiens, HT-29, HT29 (Colon), 5% FCS/5 day incubation
Description: as §1

[17] = system: U118MG; assay: SRB antiproliferative assay; format: cell-based; conditions: Homo sapiens, U-118-MG, U118MG (CNS), 5% FCS/5 day incubation
Description: as §1

[18] = system: U251; assay: In-Vitro Testing SRB panel: CNS Cancer; format: cell-based
[19] = system: SF-295; assay: In-Vitro Testing SRB panel: CNS Cancer; format: cell-based

SMILES: COc1ccc2c(c1)CN(C(=O)c1ccc([N+](=O)[O-])cc1)c1ccc(Cl)cc1C2c1ccccc1Cl (stereo not shown) [Compound 30]
- GI50 ([1]; Homo sapiens, PC-3): 1.33 µM
- CC50 ([1]; Homo sapiens, PC-3, read-out: LC50 (the source's name)): > 100 µM
- TGI ([1]; PC-3): >1.00E−04 Molar
- Percent Growth ([1]; PC-3, Log10 concentration −4.0 Molar): 30%
- Percent Growth ([1]; PC-3, Log10 concentration −5.0 Molar): 29%
- Percent Growth ([1]; PC-3, Log10 concentration −6.0 Molar): 53%
- Percent Growth ([1]; PC-3, Log10 concentration −7.0 Molar): 103%
- Percent Growth ([1]; PC-3, Log10 concentration −8.0 Molar): 100%
- GI50 ([2]; Homo sapiens, OVCAR-3): 10.2 µM
- CC50 ([2]; Homo sapiens, OVCAR-3, read-out: LC50): > 100 µM
- TGI ([2]; OVCAR-3): >1.00E−04 Molar
- Percent Growth ([2]; OVCAR-3, Log10 concentration −4.0 Molar): 43%
- Percent Growth ([2]; OVCAR-3, Log10 concentration −5.0 Molar): 50%
- Percent Growth ([2]; OVCAR-3, Log10 concentration −6.0 Molar): 89%
- Percent Growth ([2]; OVCAR-3, Log10 concentration −7.0 Molar): 105%
- Percent Growth ([2]; OVCAR-3, Log10 concentration −8.0 Molar): 95%
- TGI ([3]; COLO 205): >1.00E−04 Molar
- Percent Growth ([3]; COLO 205, Log10 concentration −4.0 Molar): 43%
- Percent Growth ([3]; COLO 205, Log10 concentration −5.0 Molar): 46%
- Percent Growth ([3]; COLO 205, Log10 concentration −6.0 Molar): 68%
- Percent Growth ([3]; COLO 205, Log10 concentration −7.0 Molar): 87%
- Percent Growth ([3]; COLO 205, Log10 concentration −8.0 Molar): 93%
- GI50 ([3]; Homo sapiens, COLO 205): 6.64 µM
- CC50 ([3]; Homo sapiens, COLO 205, read-out: LC50 (the source's name)): > 100 µM
- TGI ([4]; HCT-116): 1.00E−04 Molar
- Percent Growth ([4]; HCT-116, Log10 concentration −4.0 Molar): 22%
- Percent Growth ([4]; HCT-116, Log10 concentration −5.0 Molar): 17%
- Percent Growth ([4]; HCT-116, Log10 concentration −6.0 Molar): 63%
- Percent Growth ([4]; HCT-116, Log10 concentration −7.0 Molar): 90%
- Percent Growth ([4]; HCT-116, Log10 concentration −8.0 Molar): 97%
- GI50 ([4]; Homo sapiens, HCT-116): 1.91 µM
- CC50 ([4]; Homo sapiens, HCT-116, read-out: LC50 (the source's name)): > 100 µM
- TGI [5]: >1.00E−04 Molar
- CC50 ([5]; Homo sapiens, read-out: LC50 (the source's name)): > 100 µM
- Percent Growth ([5]; Log10 concentration −4.0 Molar): 53%
- Percent Growth ([5]; Log10 concentration −5.0 Molar): 50%
- Percent Growth ([5]; Log10 concentration −6.0 Molar): 94%
- Percent Growth ([5]; Log10 concentration −7.0 Molar): 108%
- Percent Growth ([5]; Log10 concentration −8.0 Molar): 107%
- GI50 ([6]; Homo sapiens, T47D): 2.87 µM
- CC50 ([6]; Homo sapiens, T47D, T-47D, read-out: LC50 (the source's name)): > 100 µM
- TGI ([6]; T-47D): >1.00E−04 Molar
- Percent Growth ([6]; T-47D, Log10 concentration −4.0 Molar): 18%
- Percent Growth ([6]; T-47D, Log10 concentration −5.0 Molar): 23%
- Percent Growth ([6]; T-47D, Log10 concentration −6.0 Molar): 71%
- Percent Growth ([6]; T-47D, Log10 concentration −7.0 Molar): 96%
- Percent Growth ([6]; T-47D, Log10 concentration −8.0 Molar): 92%
- GI50 ([7]; Homo sapiens, SNB-19): 8.22 µM
- CC50 ([7]; Homo sapiens, SNB-19, read-out: LC50 (the source's name)): > 100 µM
- TGI ([7]; SNB-19): >1.00E−04 Molar
- Percent Growth ([7]; SNB-19, Log10 concentration −4.0 Molar): 37%
- Percent Growth ([7]; SNB-19, Log10 concentration −5.0 Molar): 47%
- Percent Growth ([7]; SNB-19, Log10 concentration −6.0 Molar): 86%
- Percent Growth ([7]; SNB-19, Log10 concentration −7.0 Molar): 90%
- Percent Growth ([7]; SNB-19, Log10 concentration −8.0 Molar): 95%
- GI50 ([8]; Homo sapiens, IGROV-1): 6.35 µM
- CC50 ([8]; Homo sapiens, IGROV-1, IGROV1, read-out: LC50 (the source's name)): > 100 µM
- TGI ([8]; IGROV1): >1.00E−04 Molar
- Percent Growth ([8]; IGROV1, Log10 concentration −4.0 Molar): 36%
- Percent Growth ([8]; IGROV1, Log10 concentration −5.0 Molar): 41%
- Percent Growth ([8]; IGROV1, Log10 concentration −6.0 Molar): 86%
- Percent Growth ([8]; IGROV1, Log10 concentration −7.0 Molar): 97%
- Percent Growth ([8]; IGROV1, Log10 concentration −8.0 Molar): 97%
- GI50 ([9]; Homo sapiens, SF-539): 3.87 µM
- CC50 ([9]; Homo sapiens, SF-539, read-out: LC50 (the source's name)): > 100 µM
- TGI ([9]; SF-539): >1.00E−04 Molar
- Percent Growth ([9]; SF-539, Log10 concentration −4.0 Molar): 20%
- Percent Growth ([9]; SF-539, Log10 concentration −5.0 Molar): 33%
- Percent Growth ([9]; SF-539, Log10 concentration −6.0 Molar): 75%
- Percent Growth ([9]; SF-539, Log10 concentration −7.0 Molar): 92%
- Percent Growth ([9]; SF-539, Log10 concentration −8.0 Molar): 93%
- GI50 ([10]; Homo sapiens, MCF7): 5.38 µM
- CC50 ([10]; Homo sapiens, MCF7, MC-F7, read-out: LC50 (the source's name)): > 100 µM
- TGI ([10]; MC-F7): >1.00E−04 Molar
- Percent Growth ([10]; MC-F7, Log10 concentration −4.0 Molar): 33%
- Percent Growth ([10]; MC-F7, Log10 concentration −5.0 Molar): 36%
- Percent Growth ([10]; MC-F7, Log10 concentration −6.0 Molar): 88%
- Percent Growth ([10]; MC-F7, Log10 concentration −7.0 Molar): 106%
- Percent Growth ([10]; MC-F7, Log10 concentration −8.0 Molar): 102%
- GI50 ([11]; Homo sapiens, SNB-75): 4.52 µM
- CC50 ([11]; Homo sapiens, SNB-75, read-out: LC50 (the source's name)): > 100 µM
- TGI ([11]; SNB-75): >1.00E−04 Molar
- Percent Growth ([11]; SNB-75, Log10 concentration −4.0 Molar): 25%
- Percent Growth ([11]; SNB-75, Log10 concentration −5.0 Molar): 32%
- Percent Growth ([11]; SNB-75, Log10 concentration −6.0 Molar): 83%
- Percent Growth ([11]; SNB-75, Log10 concentration −7.0 Molar): 103%
- Percent Growth ([11]; SNB-75, Log10 concentration −8.0 Molar): 99%
- IC50 [12]: 1.5 µM
- IC50 [13]: 0.9 µM
- IC50 [14]: 0.5 µM
- IC50 [15]: 1.3 µM
- IC50 [16]: 0.6 µM
- IC50 [17]: 0.8 µM
- GI50 ([18]; Homo sapiens, U-251): 5.1 µM
- CC50 ([18]; Homo sapiens, U-251, U251, read-out: LC50 (the source's name)): > 100 µM
- TGI ([18]; U251): >1.00E−04 Molar
- Percent Growth ([18]; U251, Log10 concentration −4.0 Molar): 37%
- Percent Growth ([18]; U251, Log10 concentration −5.0 Molar): 37%
- Percent Growth ([18]; U251, Log10 concentration −6.0 Molar): 81%
- Percent Growth ([18]; U251, Log10 concentration −7.0 Molar): 103%
- Percent Growth ([18]; U251, Log10 concentration −8.0 Molar): 94%
- GI50 ([19]; Homo sapiens, SF-295): 6.49 µM
- CC50 ([19]; Homo sapiens, SF-295, read-out: LC50 (the source's name)): > 100 µM
- TGI ([19]; SF-295): >1.00E−04 Molar
- Percent Growth ([19]; SF-295, Log10 concentration −4.0 Molar): 32%
- Percent Growth ([19]; SF-295, Log10 concentration −5.0 Molar): 41%
- Percent Growth ([19]; SF-295, Log10 concentration −6.0 Molar): 88%
- Percent Growth ([19]; SF-295, Log10 concentration −7.0 Molar): 104%
- Percent Growth ([19]; SF-295, Log10 concentration −8.0 Molar): 93%
